Source: patent US20220274947A1, “NOVEL HETEROARYL-TRIAZOLE COMPOUNDS AS PESTICIDES” (Bayer Aktiengesellschaft, priority 2019, published 2022)

Assays:
Format in all cases: in vivo
[1] = tested on: Rhipicephalus sanguineus; assay: Rhipicephalus sanguineus in-vitro contact test, adult brown dog ticks (RHIPSA Cont); conditions: 48 h, after 48 hours, read-out: activity (efficacy: 100% means all ticks are dead or moribund); for pest or weed control at 1 µg/cm2, 100 g/ha: application rate 1 μg/cm^2 (=100 g/ha); for pest or weed control at 5 µg/cm2, 500 g/ha: application rate 5 μg/cm^2 (=500 g/ha)
Outline: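 Compound in acetone was coated onto the inner walls of glass tubes and dried by rotation before adult brown dog ticks were exposed. Efficacy was scored at 48 h. Ticks unable to climb away from a 45–50 °C heating plate within 5 min counted as dead or moribund.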

[2] = tested on: Myzus persicae; assay: Myzus persicae oral test; conditions: 120 h, read-out: activity (mortality)
Outline: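 Percent mortality was recorded at day 5, where 0% means no aphids killed. Compound prepared from an acetone concentrate diluted in water and combined with IPL41 medium containing sugar was offered to mixed-stage green peach aphids, which sucked it through a parafilm seal.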

[3] = tested on: Nezara viridula; assay: Nezara viridula spray test; conditions: in Hordeum vulgare, 96 h, barley plants, larvae, after 4 days; for mortality at 100 g/ha: application rate 100 g/ha; for mortality at 500 g/ha: application rate 500 g/ha
Outline: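 Barley plants infested with N. viridula larvae were sprayed with compound in acetone/DMF diluted with water containing 1000 ppm alkylarylpolyglycol ether emulsifier. Mortality (%) was scored after 4 days; 100% means all bugs killed, 0% none.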

[4] = tested on: Aedes aegypti strain MONHEIM; assay: Aedes aegypti test (AEDSAE surface treatment & contact assay); conditions: exposure 30 minutes, 24 hours after contact, read-out: efficacy (mortality); for mortality at 4 mg/m2: surface concentration 4 mg/m^2, glazed tile; for mortality at 20 mg/m2: surface concentration 20 mg/m^2, glazed tile
Outline: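 Compound dissolved in acetone (2 mg/ml) with 2000 ppm rapeseed oil methyl ester, pipetted onto glazed tile and dried. Adult mosquitoes exposed on the surface for 30 min; percent mortality scored 24 h after contact.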

[5] = tested on: Culex quinquefasciatus strain P00; assay: Culex quinquefasciatus test (CULXFA surface treatment & contact assay); conditions: exposure 30 minutes, 24 hours after contact, read-out: efficacy (mortality); for mortality at 4 mg/m2: surface concentration 4 mg/m^2, glazed tile; for mortality at 20 mg/m2: surface concentration 20 mg/m^2, glazed tile
Outline: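 Test compound in acetone (2 mg/ml) with 2000 ppm RME pipetted onto glazed tile; after acetone evaporation, adult strain P00 mosquitoes exposed to dried surface for 30 min. Mortality (%) scored 24 h after contact; 100% = all dead, 0% = none dead.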

[6] = tested on: Musca domestica strain WHO—N; assay: Musca domestica test (MUSCDO surface treatment & contact assay); conditions: exposure 30 minutes, 24 hours after contact, read-out: efficacy (mortality); for mortality at 4 mg/m2: surface concentration 4 mg/m^2, glazed tile; for mortality at 20 mg/m2: surface concentration 20 mg/m^2, glazed tile
Outline: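 Compound dissolved in acetone (2 mg/ml) with 2000 ppm rapeseed oil methyl ester and pipetted onto glazed tile; after acetone evaporation, adult flies exposed to dried surface for 30 minutes. Mortality (%) scored 24 hours after contact.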

[7] = tested on: Anopheles funestus strain FUMOZ-R; assay: Anopheles funestus test (ANPHFU surface treatment & contact assay); conditions: exposure 30 minutes, 24 hours after contact, read-out: efficacy (mortality); for mortality at 4 mg/m2: surface concentration 4 mg/m^2, glazed tile; for mortality at 20 mg/m2: surface concentration 20 mg/m^2, glazed tile
Outline: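 Adult FUMOZ-R mosquitoes were exposed 30 min to glazed tiles treated with compound in acetone plus 2000 ppm rapeseed oil methyl ester, after solvent evaporation. Percent mortality was scored 24 h after contact.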

[8] = tested on: Rhipicephalus microplus; assay: Rhipicephalus (Boophilus) microplus dip test (BOOPMI Dip); conditions: 168 h, application rate 100 ppm, engorged adult female ticks, after 7 days, read-out: activity (efficacy: 100% means all eggs are infertile)
Method: Rhipicephalus (Boophilus) Microplus—Dip Test (BOOPMI Dip)
Test Animal: cattle ticks (Rhipicephalus microplus) strain parkhurst, SP-resistant Solvent: dimethyl sulfoxide
To produce a suitable preparation of active compound, 10 mg of active compound are dissolved in 0.5 mL solvent, and the concentrate is diluted with water to the desired concentration.
This compound solution is pipetted into tubes. 8-10 engorged, adult, female cattle ticks (Rhipicephalus microplus) are placed in perforated tubes. These tubes are immersed in the aqueous compound solution until the ticks are completely moistened. After the liquid has drained off, the ticks are transferred to a filter paper in a plastic tray and stored in a climate chamber.
After 7 days egg deposition of fertile eggs is monitored. Eggs where fertility is not visible are stored in a climate chamber till hatching after about 42 days. An efficacy of 100% means all eggs are infertile; 0% means all eggs are fertile.

Compound | pest or weed control at 1 µg/cm2, 100 g/ha [1] [%] | pest or weed control at 5 µg/cm2, 500 g/ha [1] [%] | mortality at 4 ppm [2] [%] | mortality at 100 g/ha [3] [%] | mortality at 500 g/ha [3] [%] | mortality at 4 mg/m2 [4] [%] | mortality at 20 mg/m2 [4] [%] | mortality at 4 mg/m2 [5] [%] | mortality at 4 mg/m2 [6] [%] | mortality at 20 mg/m2 [6] [%] | mortality at 20 mg/m2 [5] [%] | mortality at 4 mg/m2 [7] [%] | mortality at 20 mg/m2 [7] [%] | mortality at 0.8 ppm [2] [%] | pest or weed control at 100 ppm [8] [%]
C[C@H](NC(=O)c1cc(Cl)cc(OC(F)(F)F)c1)c1ncnn1-c1ncc(OC(F)F)cn1 [II-30] | 100 | 100 | 100 | 100 | 100 | 80 to 100 | 80 to 100 | 80 to 100 | 80 to 100 | 80 to 100 |  |  |  |  | 
CCN(C(=O)c1ccc(-n2ncnc2[C@H](C)NC(=O)c2cc(Cl)cc(C(F)(F)F)c2)nc1)C1CC1 [II-31] | 100 | 100 | 100 |  | 90 |  | 80 to 100 |  |  | 80 to 100 | 80 to 100 | 80 to 100 | 80 to 100 |  | 
CC(=O)Nc1ccnc(-n2ncnc2[C@H](C)NC(=O)c2cc(Cl)cc(C(F)(F)F)c2)c1 [II-36] |  |  |  |  | 90 | 80 to 100 | 80 to 100 | 80 to 100 |  | 80 to 100 | 80 to 100 | 80 to 100 | 80 to 100 |  | 
C[C@H](NC(=O)c1cc(C(F)(F)F)cc(C(F)(F)F)c1)c1ncnn1-c1ncc(Cl)s1 [II-40] | 80 |  |  | 100 | 100 | 80 to 100 | 80 to 100 | 80 to 100 |  | 80 to 100 | 80 to 100 |  | 80 to 100 |  | 
C[C@H](NC(=O)c1cc(C(F)(F)F)cc(C(F)(F)F)c1)c1ncnn1-c1ncc(Br)s1 [II-41] | 100 | 100 | 100 | 90 |  | 80 to 100 | 80 to 100 | 80 to 100 | 80 to 100 | 80 to 100 | 80 to 100 |  |  |  | 
Cc1nc([C@H](C)NC(=O)c2cc(Br)cc(Br)c2)n(-c2ccc(C#N)cn2)n1 [II-52] | 100 | 100 | 100 |  |  | 80 to 100 | 80 to 100 | 80 to 100 | 80 to 100 | 80 to 100 |  | 80 to 100 | 80 to 100 | 100 | 
Cc1nc([C@H](C)NC(=O)c2cc(Br)cc(C#N)c2)n(-c2ccc(C#N)cn2)n1 [II-54] | 100 | 100 | 100 |  |  | 80 to 100 | 80 to 100 |  | 80 to 100 | 80 to 100 |  |  |  | 100 | 80
Cc1nc([C@H](C)NC(=O)c2cc(Cl)nc(C(F)(F)F)c2)n(-c2ccc(C#N)cn2)n1 [II-62] | 100 | 100 | 100 | 100 |  | 80 to 100 | 80 to 100 |  | 80 to 100 | 80 to 100 | 80 to 100 |  |  |  | 
Cc1nc([C@H](C)NC(=O)c2cc(C(F)(F)F)cc(C(F)(F)F)c2)n(-c2ccc(C(=O)N(C)C3CC3)cn2)n1 [II-96] | 100 | 100 | 100 |  |  | 80 to 100 | 80 to 100 |  | 80 to 100 | 80 to 100 |  |  |  |  | 100
